Data taken from patent publication US20200239530A1, “COMPOUNDS AND METHODS OF MODULATING PROTEIN DEGRADATION” (Vividion Therapeutics, Inc., priority 2017, published 2020).

Legend:
Experiment in all cases: Cysteine liganding, probe competition
Type in all cases: binding
[1] = target: T1, CDK17 Cyclin-dependent kinase 17 (Homo sapiens, UniProt Q00537); settings: for Liganded: CDK17 Res# 233, uniprot Q00537
T1 construct: 200 μL of lysate containing 5 mg/ml proteome was treated with 2 μL of 100× compound stock; endogenous in cells
T1 sequence (Q00537 whole entry): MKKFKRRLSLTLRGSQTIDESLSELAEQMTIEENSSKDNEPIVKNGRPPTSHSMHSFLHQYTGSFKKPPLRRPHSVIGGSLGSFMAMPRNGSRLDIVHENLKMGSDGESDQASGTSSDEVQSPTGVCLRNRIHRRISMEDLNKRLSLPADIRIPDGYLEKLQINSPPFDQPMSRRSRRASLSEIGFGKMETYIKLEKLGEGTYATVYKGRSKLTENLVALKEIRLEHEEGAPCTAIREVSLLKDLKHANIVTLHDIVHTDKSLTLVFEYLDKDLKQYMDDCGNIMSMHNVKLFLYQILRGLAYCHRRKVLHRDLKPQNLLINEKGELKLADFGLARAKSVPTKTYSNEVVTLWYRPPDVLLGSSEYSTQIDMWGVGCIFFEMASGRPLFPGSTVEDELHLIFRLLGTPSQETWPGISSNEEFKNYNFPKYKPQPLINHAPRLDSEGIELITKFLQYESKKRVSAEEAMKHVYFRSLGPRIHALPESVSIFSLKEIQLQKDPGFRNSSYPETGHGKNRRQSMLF
Outline: (§1)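 Lysates from probe-sonicated cells in PBS (5 mg/ml proteome) were exposed to compound for 1 hr at 25° C, then labelled with desthiobiotin iodoacetamide probe (10 mM stock) for 1 hr at 25° C. Probe-tagged peptides were streptavidin-enriched after trypsin digestion.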

[2] = target: T2, RNF214 RING finger protein 214 (Homo sapiens, UniProt Q8ND24); settings: for Liganded: RNF214 Res# 655, uniprot Q8ND24
T2 construct: Cells were resuspended in cold PBS on ice and sonicated with a probe sonicator to achieve lysis; endogenous in cells
T2 sequence (Q8ND24 whole entry): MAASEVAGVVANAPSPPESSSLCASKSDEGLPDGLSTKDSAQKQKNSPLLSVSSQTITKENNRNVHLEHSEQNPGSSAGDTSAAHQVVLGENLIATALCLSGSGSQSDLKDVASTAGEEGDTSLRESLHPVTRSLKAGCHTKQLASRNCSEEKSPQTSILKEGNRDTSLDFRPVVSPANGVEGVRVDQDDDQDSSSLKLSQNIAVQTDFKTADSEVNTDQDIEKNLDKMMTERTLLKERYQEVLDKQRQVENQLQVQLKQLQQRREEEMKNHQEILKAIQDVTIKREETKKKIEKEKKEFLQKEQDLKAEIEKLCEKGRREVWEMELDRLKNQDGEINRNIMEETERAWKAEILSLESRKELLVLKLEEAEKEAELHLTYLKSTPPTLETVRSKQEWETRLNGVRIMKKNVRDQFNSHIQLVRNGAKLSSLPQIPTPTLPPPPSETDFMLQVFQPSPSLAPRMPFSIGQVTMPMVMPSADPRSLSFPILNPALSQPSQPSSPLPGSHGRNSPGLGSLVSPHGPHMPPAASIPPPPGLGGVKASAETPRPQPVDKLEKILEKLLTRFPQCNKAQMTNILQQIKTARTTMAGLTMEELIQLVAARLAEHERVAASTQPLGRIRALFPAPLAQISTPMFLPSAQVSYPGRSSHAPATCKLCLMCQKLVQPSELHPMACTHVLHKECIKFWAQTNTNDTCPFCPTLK
Outline: as §1

[3] = target: T3, ZNF644 Zinc finger protein 644 (Homo sapiens, UniProt Q9H582)
T3 construct: Cells were resuspended in cold PBS on ice and sonicated with a probe sonicator to achieve lysis; endogenous in cells
T3 sequence (Q9H582 1-1327): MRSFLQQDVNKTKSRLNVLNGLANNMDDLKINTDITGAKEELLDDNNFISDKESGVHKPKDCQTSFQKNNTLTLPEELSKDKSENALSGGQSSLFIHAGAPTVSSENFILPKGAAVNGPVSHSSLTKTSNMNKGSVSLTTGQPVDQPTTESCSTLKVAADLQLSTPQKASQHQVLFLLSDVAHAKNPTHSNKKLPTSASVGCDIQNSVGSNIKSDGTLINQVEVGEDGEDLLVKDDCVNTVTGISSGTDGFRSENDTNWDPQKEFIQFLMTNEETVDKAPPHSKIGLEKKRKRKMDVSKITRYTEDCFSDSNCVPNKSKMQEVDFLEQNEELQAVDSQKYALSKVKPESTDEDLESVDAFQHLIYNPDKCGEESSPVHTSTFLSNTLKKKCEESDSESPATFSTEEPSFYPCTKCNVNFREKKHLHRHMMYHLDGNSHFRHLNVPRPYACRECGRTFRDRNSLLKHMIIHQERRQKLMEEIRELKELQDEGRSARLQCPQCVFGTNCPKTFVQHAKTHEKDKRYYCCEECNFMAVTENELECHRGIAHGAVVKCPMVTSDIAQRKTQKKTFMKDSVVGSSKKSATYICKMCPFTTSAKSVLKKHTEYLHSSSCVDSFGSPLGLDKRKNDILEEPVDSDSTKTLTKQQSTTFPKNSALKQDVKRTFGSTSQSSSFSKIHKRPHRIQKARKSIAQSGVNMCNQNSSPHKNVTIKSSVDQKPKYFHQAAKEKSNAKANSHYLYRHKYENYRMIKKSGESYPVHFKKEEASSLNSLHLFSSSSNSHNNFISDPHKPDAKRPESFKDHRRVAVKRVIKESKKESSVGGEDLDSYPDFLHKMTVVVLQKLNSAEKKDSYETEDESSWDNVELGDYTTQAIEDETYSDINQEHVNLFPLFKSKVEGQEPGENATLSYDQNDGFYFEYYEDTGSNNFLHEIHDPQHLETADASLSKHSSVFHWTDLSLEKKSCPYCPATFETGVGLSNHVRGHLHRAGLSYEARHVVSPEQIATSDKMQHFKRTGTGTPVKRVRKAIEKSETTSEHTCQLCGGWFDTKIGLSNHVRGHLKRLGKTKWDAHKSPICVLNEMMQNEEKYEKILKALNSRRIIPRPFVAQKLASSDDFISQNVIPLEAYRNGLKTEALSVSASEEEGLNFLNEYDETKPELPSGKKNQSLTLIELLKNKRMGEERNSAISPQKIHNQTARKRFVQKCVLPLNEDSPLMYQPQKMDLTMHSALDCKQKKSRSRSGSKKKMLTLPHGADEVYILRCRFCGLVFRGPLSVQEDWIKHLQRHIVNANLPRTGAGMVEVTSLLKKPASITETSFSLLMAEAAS
Outline: as §1

Structure (SMILES)	Liganded [1]	100 Max ([1]; uniprot Q00537)	100 ave ([1]; uniprot Q00537)	500 ave ([1]; uniprot Q00537)	500 Max ([1]; uniprot Q00537, in % (unit assumed))	Liganded [2]	100 ave ([2]; uniprot Q8ND24)	500 Max ([2]; uniprot Q8ND24)	500 ave ([2]; uniprot Q8ND24)	100 Max ([2]; uniprot Q8ND24, unit assumed) [%]	100 Max ([3]; uniprot Q9H582)	100 ave ([3]; uniprot Q9H582)	500 ave ([3]; uniprot Q9H582)	500 Max ([3]; uniprot Q9H582, in % (unit assumed))	Liganded ([3]; ZNF644 Res# 507, uniprot Q9H582)
O=C(CCl)Nc1cc(C(F)(F)F)cc(C(F)(F)F)c1 [KBO3]	YES	50.67	28.2075	79.225	80.44	YES	24.8	96.4	65.9	35.5	24.53	11.2825	67.685	72.77	–
COc1ccc2c(c1)CCCN2C(=O)CCl [KB02]	YES	–	–	–	–	YES	–	–	–	–	–	–	–	–	YES
